The results in this text go back to patent US20230212123A1, “Pyridine Inhibitors of Glucosylceramide Synthase and Therapeutic Methods Using the Same” (THE REGENTS OF THE UNIVERSITY OF MICHIGAN, priority 2020, published 2023).

The target of data set [1] is T1, glucosylceramide synthase (GCS) (Canis lupus familiaris, UniProt A0A8I3MXG6).
T1 construct: endogenous in cells; host or cells: MDCK cell homogenate
T1 sequence (A0A8I3MXG6 1-394): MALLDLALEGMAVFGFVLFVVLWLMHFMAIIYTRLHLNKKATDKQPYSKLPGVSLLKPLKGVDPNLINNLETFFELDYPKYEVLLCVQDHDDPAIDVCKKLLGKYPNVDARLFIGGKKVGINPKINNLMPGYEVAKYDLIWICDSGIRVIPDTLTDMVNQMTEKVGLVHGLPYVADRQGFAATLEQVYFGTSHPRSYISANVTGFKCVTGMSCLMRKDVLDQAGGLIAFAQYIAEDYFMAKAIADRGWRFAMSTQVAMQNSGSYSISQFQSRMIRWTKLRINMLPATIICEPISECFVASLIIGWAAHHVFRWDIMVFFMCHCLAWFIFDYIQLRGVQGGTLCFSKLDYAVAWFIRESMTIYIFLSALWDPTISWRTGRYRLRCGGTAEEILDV
Briefly: GCS inhibition in MDCK cell homogenates (Lysate IC50). Conditions: MDCK cell homogenate. It is filed as biochemical, canine. As to the method:
GCS Inhibition in MDCK Cell Homogenates (Lysate IC50, Table 1)
IC50 values for new compounds of the invention were determined as reported in Shayman J. A., Abe A. 2000. Glucosylceramide synthase: assay and properties. Methods Enzymol.311: 42-49.

The target of the next data set is T2, GCS in MDCKII cells (Canis lupus familiaris, UniProt A0A8I3MXG6).
T2 construct: whole cellular lipids of wild type MDCKII cells were extracted; endogenous in cells; host or cells: wild type MDCKII cells
T2 sequence (A0A8I3MXG6 1-394): T1 sequence (A0A8I3MXG6 1-394)
Briefly: GCS inhibition in MDCKII cells (glucosylceramide content after 24 h). It is filed as cell-based, canine. As to the method: GCS Inhibition in MDCKII Cells (MDCKII IC50, Table 1)
MDCKII cells were routinely maintained in medium consisting of Opti-MEM/F12 (1:1), 5% FBS, 100 U/mL of penicillin, 100 µg/mL streptomycin and 200 mM L-glutamine. MDCKII cells were newly thawed from frozen ampules every two months.
Stock solutions of water-insoluble glycosphingolipid inhibitors (100 mM) were prepared by dissolving each inhibitor into 100% ethanol as previously described (3). The inhibitor-ethanol solutions then were diluted 50X into 2 mM delipidated bovine serum albumin-phosphate buffered saline solution to make water-soluble glycosphingolipid inhibitor-bovine serum albumin complexes. The inhibitor-bovine serum album complexes were sterile-filtered and stored at -20° C. Prior to use, portions of the inhibitor-bovine serum albumin complexes were further diluted with Opti-F12 to make treatment solutions. Equal amounts of bovine serum albumin and ethanol were added into the control cultures. Cells (5 x 10^5) were seeded into 10-cm culture dishes containing 10 ml of Opti-F12 with 5% FBS. After 24 hours, the medium was replaced with fresh serum-free Opti-F12 medium, and cells were exposed to candidate GCS inhibitors at concentrations of 0, 1, 3, 10, 30, 100 and 300 nM for 24 hours.
Following inhibitor treatment, whole cellular lipids of wild type MDCKII cells were extracted as previously described in detail (10). Briefly, cells were washed with ice-cold phosphate buffered saline, fixed by methanol, and collected with rubber scraper. Chloroform was then added to yield a theoretical ratio of chloroform:methanol:water at 1:2:0.8 (v/v/v) to form a mono-phase. Cell debris and proteins were removed by centrifugation at 2200 x g for 30 min. The supernatants were portioned by adding chloroform and 0.9% NaCl. The lower organic phases containing neutral glycosphingolipids lipids were washed with methanol and 0.9% NaCl, and subjected to base- and acid-hydrolysis (10). A portion of purified glycosphingolipids normalized to 100 nmol of total phospholipids was analyzed by high performance thin layer chromatography. The thin layer chromatography separations were processed twice. The plate pretreated with 1% sodium borate was first developed in a solvent system consisting of chloroform/methanol (98/2, v/v). After air drying, the plate was then developed in a solvent system containing chloroform/methanol/water (70/30/4, v/v/v). The levels of glucosylceramide were detected by charring with 8% cupric sulfate in 8% phosphoric acid, and quantified by densitometric scanning using ImageJ, NIH Image. Image data was analyzed, and the IC50 of each inhibitor was calculated using GraphPad Prism (version 5.03).

Data set [2] deals with glucosylceramide (GlcCer) in brain and liver. Briefly: Reduction of brain and liver glucosylceramide in CBE mice. It is filed as in vivo. Conditions: 14 days, D409V/null mice with CBE 25 mg/kg/day ip.
Experimental: The in vivo assay measured the reduction in brain and liver glucosylceramide and glucosylsphingosine levels in mice on a D409V background concurrently treated with conduritol B epoxide (CBE), an irreversible inhibitor of GBA (beta-glucocerebrosidase).
Reduction of Brain and Liver Glucosylceramide and Glucosylsphingosine in CBE Mice
The reduction by inhibitors of GCS in brain glucosylceramide and glucosylsphingosine content was determined by the use of mice with Gba 1 mutant alleles, termed D409V/null. These are knock-in mice with a Gba 1 point mutation encoding Valine (V) 409 for the wild type (WT) Aspartate (D) on one missense allele and a null heteroallele [D409V/null (9V/null)]. The D409V/null and WT littermates were of mixed gender and mixed, but matched, genetic backgrounds of C57BL/129Sv/FVB. […] Mice were concurrently treated with GCS inhibitor or vehicle control for 14 days. The mice were sacrificed 2 hours following the last injection and tissues including brain, liver, spleen, kidney and lung were analyzed for glucosylceramide and glucosylsphingosine by mass spectrometry.
Mouse Tissue Lipid Analysis
Lipid extractions of liver, kidney, and brain were performed as previously described (7). Briefly, frozen liver (about 0.5 g), two kidneys (about 0.3 g) and whole brain (about 0.4 g) were individually homogenized in sucrose buffer (250 mM sucrose, pH 7.4, 10 mM HEPES and 1 mM EDTA), at 0.2 g tissue/1 mL of sucrose buffer, with a Tri-R homogenizer. Each 0.8 mL of homogenate was mixed with 2 mL of methanol and 1 mL of chloroform, bath sonicated for 1 min and incubated at room temperature for 1 h. Tissue debris were removed by centrifugation at 2.400 x gravity for 30 min. The pellets were reextracted by mixing with 1 mL of methanol, 0.5 mL of chloroform and 0.4 mL of 0.9% NaCl (chloroform/methanol/0.9% NaCl, 1:2:0.8), incubated at room temperature for 1 h and centrifuged at 2.400 x gravity for another 30 min. Two extracts were combined and mixed with 4.5 mL of chloroform and 1.2 mL of 0.9% NaCl (chloroform/methanol/0.9% NaCl, 2:1:0.8). After centrifugation at 800 x gravity for 5 min, lower layer was washed with 3 mL of methanol and 2.4 mL of 0.9% NaCl. Second washing was carried with 3 mL of methanol, 2 mL of water and 0.4 mL of 0.9% NaCl followed by a 5 min centrifugation at 800 x gravity. The resultant lower phase was collected and dried under a stream of N2 gas.
The analysis of neutral glycosphingolipids from mouse liver, kidney, and brain was processed after alkaline methanolysis. Kidney lipids were incubated with 2 mL of chloroform and 1 ml of 0.21 N NaOH in methanol for 2 h (kidney) or 7.5 h (liver and brain) at RT. […] GlcCer levels were quantified by comparison to known standards.
Data set [3] in a line: Pharmacokinetics in mice: plasma and brain drug AUC. Conditions: over 7 hrs following single IP injection at 10 mg/kg; for Kp / AUC: mouse; for Kp: brain/plasma; for AUC: plasma. It is filed as in vivo.
Where [4] appears, read: 24 hours exposure, glucosylceramide level.

Structures are written as SMILES.

For orientation: IC50 means the concentration at which inhibition is half-maximal. Read a high IC50 as weaker potency in that assay. What is called Kp is tissue or fluid exposure divided by exposure in the circulation. By AUC is commonly meant concentration integrated over time. A high value points to more exposure. In data set [1], `CC(C)(C)Oc1ccc([C@@H](O)[C@@H](CN2CCCC2)NC(=O)CC2Cc3ccccc3C2)nc1` [Example 17, N-((1S,2R)-1-(5-(tert-butoxy)pyridin-2-yl)-1-hydroxy-3-(pyrrolidin-1-yl)propan-2-yl)-2-(2,3-dihydro-1H-inden-2-yl)acetamide] gave an IC50 of 11.3 nM. The compound also had a 50% inhibitory concentration (IC50) against GCS in MDCKII cells (setting [4]) of 4.6 nM. Further, in data set [2] (dose 100 µmol/kg), the “CBE mouse GlcCer reduction in brain” value was determined as 23% and the “CBE mouse GlcCer reduction in liver” value amounted to 34%. In data set [3], the partition ratio (Kp) was 0.34, the AUC was 902 ng·h/mL and the “Brain drug AUC” value came to 308 ng·h/g.

As for `COc1ccc([C@@H](O)[C@@H](CN2CC[C@@H](F)C2)NC(=O)CC2Cc3ccccc3C2)nc1` [Example 19, 2-(2,3-dihydro-1H-inden-2-yl)-N-((1S,2R)-3-((R)-3-fluoropyrrolidin-1-yl)-1-hydroxy-1-(5-methoxypyridin-2-yl)propan-2-yl)acetamide], the IC50 in data set [1] came out at 82 nM; on GCS in MDCKII cells (setting [4]) it was 13.9 nM.

As to `O=C(CC1Cc2ccccc2C1)N[C@H](CN1CCCC1)[C@H](O)c1cccc(Cl)n1` [Example 20, N-((1S,2R)-1-(6-chloropyridin-2-yl)-1-hydroxy-3-(pyrrolidin-1-yl)propan-2-yl)-2-(2,3-dihydro-1H-inden-2-yl)acetamide], the IC50 in data set [1] is 131 nM; against GCS in MDCKII cells (setting [4]), 61 nM.

With `O=C(CC1Cc2ccccc2C1)N[C@H](CN1CCCC1)[C@H](O)c1ccc(OC(F)(F)F)cn1` [Example 21, 2-(2,3-dihydro-1H-inden-2-yl)-N-((1S,2R)-1-hydroxy-3-(pyrrolidin-1-yl)-1-(5-(trifluoromethoxy)pyridin-2-yl)propan-2-yl)acetamide], half-maximal inhibition in data set [1] (IC50) required 77 nM. Besides, the IC50 at GCS in MDCKII cells (cell marked 'rac': value of the racemate, 24 hours) amounted to 6.5 nM. In data set [3], the partition ratio (Kp) was found to be 0.35, the AUC stood at 1120 ng·h/mL and the “Brain drug AUC” value was 398 ng·h/g.

Turning to `CC(C)(C)Oc1ccc([C@@H](O)[C@@H](CN2CCCC2)NC(=O)CC2Cc3ccc(F)cc3C2)nc1` (stereo partly drawn) [Example 24, N-((1S,2R)-1-(5-(tert-butoxy)pyridin-2-yl)-1-hydroxy-3-(pyrrolidin-1-yl)propan-2-yl)-2-(5-fluoro-2,3-dihydro-1H-inden-2-yl)acetamide], the IC50 in data set [1] turned out to be 568 nM; at GCS in MDCKII cells (setting [4]), 23.8 nM.

Compound `O=C(CC1Cc2ccccc2C1)N[C@H](CN1CCCC1)[C@H](O)c1cc(Cl)ccn1` [Example 25, N-((1S,2R)-1-(4-chloropyridin-2-yl)-1-hydroxy-3-(pyrrolidin-1-yl)propan-2-yl)-2-(2,3-dihydro-1H-inden-2-yl)acetamide] displayed an IC50 in data set [1] of 36.4 nM. Also, in data set [2] (dose 72 µmol/kg), the “CBE mouse GlcCer reduction in brain” value came out at 30% and the “CBE mouse GlcCer reduction in liver” value is reported as 36%. Besides, in data set [3], the Kp was 0.17, the AUC was determined as 1040 ng·h/mL and the “Brain drug AUC” value was found to be 173 ng·h/g.

As to `CC(C)(C)Oc1ccc([C@@H](O)[C@@H](CN2CCCC2)NC(=O)CC2Cc3ccccc3C2)cc1` [reference compound], in data set [3], the concentration ratio (Kp) was 0.58, the exposure (AUC) was 1070 ng·h/mL and the “Brain drug AUC” value was found to be 619 ng·h/g.

`O=C(CC1Cc2ccccc2C1)N[C@H](CN1CCCC1)[C@H](O)c1ccc(OC(F)(F)F)cc1` [reference compound]: in data set [3], the Kp is 0.8, the “Brain drug AUC” value turned out to be 1046 ng·h/g and the “Plasma drug AUC” value turned out to be 1308 ng·h/mL.

Consider `O=C(CC1Cc2ccccc2C1)N[C@H](CN1CCCC1)[C@H](O)c1cccc(Cl)c1` [reference compound], for which, in data set [3], the partition ratio (Kp) is 0.72 and the “Brain drug AUC” value was found to be 1109 ng·h/g.
